The values below are quoted from earlier work in patent US6645524B2, “Oral pharmaceutical dosage forms for pulsatile delivery of an antiarrhythmic agent” (Pierce Management LLC, priority 2000, dated 2003).

Read-outs that look alike come from different tables or passages of the source.

Series [1] concerns high-risk post-myocardial infarction patients. The following applies: 3,121 patients with left ventricular ejection fraction of 40% or below, versus placebo.
The conditions of series [2]: more than 99% enantiomerically pure, given in tablets.
Series [3] relates to patients with chronic atrial fibrillation/atrial flutter. As to conditions: titrated 80 mg/day to 320 mg/day after cardioversion; placebo 44 days.
The test system of series [4] is patients with symptomatic primary paroxymal atrial fibrillation/atrial flutter. As to conditions: for median time to recurrence of symptomatic ECG-documented atrial fibrillation/atrial flutter: twice a day.
Series [5] has as its system patients with histories of sustained ventricular tachyarrhythmias. As to conditions: versus imipramine, mexiletine, pirmenol, procainamide, propafenone and quinidine, 496 patients.
A further series has as its system QT interval. The following applies: 6 days of 80 mg twice or three times daily, 10 patients.

In the case of `CC(C)NC[C@@H](O)c1ccc(NS(C)(=O)=O)cc1` [d-sotalol], in series [1], the mortality entry is reported as “increased mortality compared with placebo”. Further, in series [2], the “effect on heart rate and blood pressure” value was “decreased resting and exercise heart rate without altering blood pressure”.

`CC(C)NCC(O)c1ccc(NS(C)(=O)=O)cc1` (racemic) [sotalol]: the “median time to recurrence of ECG-documented atrial fibrillation” value in series [3] is listed as “more than 180 days”. Moreover, the absorption entry runs as follows: (given with food) “approximately 80%”; (oral ingestion on an empty stomach) “completely absorbed”. Also, the “apparent volume of distribution” value (human, in vivo) is on record as “two”. For the same molecule, the “eliminated by renal excretion as unchanged sotalol” value (human, in vivo) is 80-90%. The protein binding result (human, in vivo) is recorded as “negligible”. For the same molecule, the bioavailability entry (no significant presystemic metabolism) is “completely bioavailable”. Moreover, the figures for the “patients discontinued because of adverse events” value in series [4] (80 mg dose level), in series [4] (120 mg dose level) and in series [4] (160 mg dose level) were 12%, 18% and 29%, respectively. The “median time to recurrence of symptomatic ECG-documented atrial fibrillation/atrial flutter” value in series [4] (80 mg dose level) is given as 106 days; in series [4] (120 mg dose level), 229 days; in series [4] (160 mg dose level), 175 days. In series [5], the “preventing death from arrhythmias or any other cardiac cause” value was “more effective than the other agents”. Besides, the “partial loss of repolarization effect (pharmacodynamic tolerance)” value in the series with QT interval is given as “four out of the ten patients”.
